Assay results as given in publication PMC9743426, “Expanding the Chemical Space of Drug-like Passerini Compounds: Can α-Acyloxy Carboxamides Be Considered Hard Drugs?” (ACS Medicinal Chemistry Letters, 2022).

Assays:
[1] = Hydrolytic stability in human plasma; format: in vitro ADME; conditions: substrate 10 μM, 30 min, 37 °C
Protocol: As a final point, for some of the compounds characterized by the best hepatic stability, we also evaluated them in human plasma (Table 2) and under acidic and alkaline conditions (see the Supporting Information), the latter to ascertain the stability of α-acyloxy carboxamides in the gastrointestinal tract. […] Once again, the ortho,ortho′-disubstitution of the aromatic ring is the one that gives the best metabolic stability. […]
Hydrolytic stability in human plasma
The standard incubation mixture (100 μL final volume) was carried out by dissolving the tested substrate compounds (10 μM) in DMSO (5% final volume) in preincubated plasma at 37 °C. The mixture was shaken for 30 min at 37 °C. Control incubations were carried out without substrate. Each incubation was stopped by addition of 200 μL of ice-cold acetonitrile, vortexed, and centrifuged at 13000 rpm for 10 min. The supernatants were analyzed by LC-HRMS. […]

[2] = Hydrolytic stability in mouse liver microsomes (MLM); format: in vitro ADME; conditions: 30 min; for Residual substrate percentage, MLM: mouse liver microsomes 1.0 mg/mL protein, substrate 10 μM, 37 °C
Protocol: (§1) For all 43 compounds, a first evaluation of their chemical and metabolic stabilities toward hydrolysis was performed by incubating them in buffer under physiological conditions (50 mM Tris-HCl, pH 7.4) and in mouse liver microsomes (Table 1). This model was chosen because, similar to the human liver, both of the carboxylesterase isoforms are present. […] A more interesting trend was instead possible to observe with benzoic acids.
(§2) Hydrolytic stability in MLM and HLM
(§3) The standard incubation mixture (200 µL final volume) was carried out in a 50 mM TRIS-HCl buffer (pH 7.4) containing 150 mM KCl, tween 80 as cosolvent (0.8 mg/mg protein), and the substrate (10 μM). After pre-equilibration of the mixture, an appropriate volume of MLM or HLM suspension was added to give a final protein concentration of 1.0 mg/mL. The mixture was shaken for 30 minutes at 37 °C. Control incubations were carried out without the presence or microsomes or in pure acetonitrile. Each incubation was stopped by the addition of 200 µL ice-cold acetonitrile, vortexed and centrifuged at 13000 rpm for 5 min. The supernatants were analyzed by LC-HRMS. […]

[3] = Hydrolytic (chemical) stability in Tris-HCl buffer pH 7.4; format: physicochemical; conditions: 50 mM Tris-HCl buffer pH 7.4, incubation 30 min, without microsomes
Protocol: as §1, §2, §3

[4] = Hydrolytic stability in human liver microsomes (HLM); format: in vitro ADME; conditions: 30 min; for Residual substrate percentage, HLM: human liver microsomes 1.0 mg/mL protein, substrate 10 μM, 37 °C
Protocol: This was made in light of the fact that the overall metabolizing capability of murine hepatic enzymes, including carboxylesterases, is supposed to be higher compared to the human ones.[17]
as §2, §3

[5] = tested on: P. aeruginosa ATCC 9027; experiment: Antibacterial activity, agar well-diffusion method; format: cell-based, Pseudomonas aeruginosa; conditions: for Inhibition zone: P. aeruginosa ATCC 9027, 1 mg/mL in DMSO, 55 μL per 6 mm well, 24 h at 37 °C, average ± SD; for Antibacterial activity (in words): P. aeruginosa ATCC 9027, 1 mg/mL
Text: Recently an article presented the synthesis of 1,3-phenylenebis(2-(cyclohexylamino)-2-oxoethane-1,1-diyl) dibenzoate (99) (Figure 6), obtained with a double Passerini reaction starting from 1,3-benzenedicarbaldehyde. […] According to our studies, compounds 99 is expected to suffer from metabolic instability, whereas the new analogue 100 designed by us (Figure 6), containing methyl groups at the two ortho positions in each benzoate group, should be metabolically stable. We then synthesized the two compounds and evaluated their antibacterial activities on P. aeruginosa and their hydrolytic stabilities. The in vitro antibacterial activities of 99 and 100 were evaluated against the P. aeruginosa ATCC 9027 strain. […] No inhibition halos were observed around the wells containing DMSO alone.
The in vitro antibacterial activity of the compounds was assayed against the Gram-negative P. aeruginosa
ATCC 9027 by the agar well-diffusion method. Compounds 99, 100, and gentamycin were dissolved in
DMSO (Scharlab, Barcelona, ES) and tested at the concentration of 1 mg/mL. For comparison, gentamycin
was used as a negative control of growth and DMSO as positive control of growth. The strain, obtained from
the American Type Culture Collection (ATCC, Manassas, VA, United States) and stored at −80 °C in Brain
Heart Infusion (Scharlab, Barcelona, ES) with 25% glycerol (Scharlab, Barcelona, ES), was cultured onto
Tryptic Soy Agar (Scharlab, Barcelona, ES) at 37°C for 16 h.
A bacterial suspension (ca. 1.5×10^8 Colony Forming Unit per ml) was prepared in isotonic saline solution
(NaCl 0,9%) and spread onto Muller-Hinton agar (Scharlab, Barcelona, ES) surfaces using a sterile swab.
Wells (6 mm diameter) were punched using a sterile punch cutter and filled with 55 μL of each sample. Plates
were left at room temperature for 1h to allow each sample to diffuse into the agar and then incubated at 37 °C
for 24 h. Finally, the inhibition zone diameters were measured.
The assay was carried out in triplicate and repeated twice. Results were expressed as average values ± standard

[6] = tested on: Pseudomonas aeruginosa; set-up: method as in doi:10.1155/2013/125959; conditions: mixture of two enantiomers and a meso form; cited from earlier work

Molecule	Residual substrate percentage, plasma [1]	Residual substrate percentage, MLM [2]	Residual substrate percentage, buffer [3]	Residual substrate percentage, HLM [4]	Hydrolytic stability in human liver microsomes (in words) [4]	Hydrolysis of the ester group in mouse liver microsomes (in words) [2]	Inhibition zone [5]	Antibacterial activity (in words) [5]	Antibacterial activity against Pseudomonas aeruginosa (in words) [6]
Cc1cccc(Cl)c1C(=O)OCC(=O)NC(C)(C)C [Compound 80]	>99%	97%	98%	>99%	excellent stability				
Cc1ccc(Br)c(C)c1C(=O)OCC(=O)NC(C)(C)C [Compound 98]	>99%	>99%	>99%	>99%	excellent stability	extremely stable			
CC(C)(C)NC(=O)C(OC(=O)c1ccccc1)c1ccccc1-c1ccccc1 (stereo not shown) [Compound 58]	90%	2%	>99%	>99%	stable	rapidly degraded			
gentamycin							22.3 ± 1.7 mm		
Cc1cccc(C)c1C(=O)OC(C(=O)NC(C)(C)C)c1ccccc1 (stereo not shown) [Compound 78, 2-(tert-butylamino)-2-oxo-1-phenylethyl 2,6-dimethylbenzoate]	>99%	>99%	>99%	>99%	excellent stability				
Cc1cccc(C)c1C(OC(=O)c1ccccc1)C(=O)NC(C)(C)C (stereo not shown) [Compound 57]	90%	3%	>99%	73%	stable	rapidly degraded			
O=C(OC(C(=O)NC1CCCCC1)c1cccc(C(OC(=O)c2ccccc2)C(=O)NC2CCCCC2)c1)c1ccccc1 (stereo not shown) [Compound 99, 1,3-phenylenebis(2-(cyclohexylamino)-2-oxoethane-1,1-diyl) dibenzoate, reference compound]	93%	5%	>99%	47%	hydrolytic stability increased	high instability	10.2 ± 1.2 mm	moderate antibacterial activities	good antibacterial activity
Cc1cccc(C)c1C(=O)OC(C(=O)NC1CCCCC1)c1cccc(C(OC(=O)c2c(C)cccc2C)C(=O)NC2CCCCC2)c1 (stereo not shown) [Compound 100]	84%	95%	>99%	>99%	completely stable	completely stable	10.4 ± 1.3 mm	moderate antibacterial activities	
